In ChEMBL document CHEMBL1156726, “Discovery of a potent and selective aurora kinase inhibitor” (Bioorg Med Chem Lett, 2008):
pEC50, pIC50: −log10 of the molar value.

Experiments:
Aurora kinase A = molecular target: T1, Aurora kinase A (Homo sapiens, UniProt O14965)
T1 sequence (O14965 whole entry): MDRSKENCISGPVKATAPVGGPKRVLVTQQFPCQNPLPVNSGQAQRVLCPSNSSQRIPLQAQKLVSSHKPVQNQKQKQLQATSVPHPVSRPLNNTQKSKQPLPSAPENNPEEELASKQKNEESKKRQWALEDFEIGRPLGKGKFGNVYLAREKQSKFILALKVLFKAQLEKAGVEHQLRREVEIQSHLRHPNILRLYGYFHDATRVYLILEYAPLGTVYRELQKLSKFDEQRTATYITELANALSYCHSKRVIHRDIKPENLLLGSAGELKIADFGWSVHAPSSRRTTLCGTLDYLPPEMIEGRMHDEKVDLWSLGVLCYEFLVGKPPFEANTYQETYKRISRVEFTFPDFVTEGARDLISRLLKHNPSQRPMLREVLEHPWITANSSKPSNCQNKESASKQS
Description: Inhibition of Aurora A by radiometric assay

Aurora kinase B = Aurora kinase B (Homo sapiens, UniProt Q96GD4); experiment: Inhibition of Aurora B by radiometric assay
Aurora kinase B, sequence (Q96GD4 whole entry): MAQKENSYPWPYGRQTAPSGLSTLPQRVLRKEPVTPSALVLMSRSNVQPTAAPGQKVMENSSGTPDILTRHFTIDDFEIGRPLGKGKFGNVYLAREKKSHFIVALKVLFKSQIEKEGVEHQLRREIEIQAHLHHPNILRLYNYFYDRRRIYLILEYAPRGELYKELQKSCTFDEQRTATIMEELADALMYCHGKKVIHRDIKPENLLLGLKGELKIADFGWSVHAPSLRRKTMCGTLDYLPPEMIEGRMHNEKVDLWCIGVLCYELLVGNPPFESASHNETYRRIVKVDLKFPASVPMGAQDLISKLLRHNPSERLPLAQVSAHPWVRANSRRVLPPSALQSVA

Mus musculus [1] = experiment: Decrease in histone H3 phosphorylation in human HCT116 cells xenografted mouse at 100 mg/kg, ip after 6 hrs; type: functional; details: HCT-116, ip, route intraperitoneal
[2] = Drug level in HCT116 xenografted mouse tumor at 100 mg/kg, ip after 10 hrs; type: ADME, organism-based, Neoplasm; design: dose 100 mg/kg, route intraperitoneal; details: human, tumor (HCT116 xenograft), read-out: Drug uptake
HCT-116 [3] = experiment: Decrease in histone H3 phosphorylation in human HCT116 cells after 16 hrs by Western blot; details: HCT-116, 16 h
HCT-116 [4] = experiment: Cell cycle arrest in human HCT116 cells assessed as accumulation of 4N DNA phase after 16 hrs by FACS; details: HCT-116, 16 h
[5] = Drug level in HCT116 xenografted mouse tumor at 100 mg/kg, ip after 6 hrs; type: ADME, organism-based, Neoplasm; design: dose 100 mg/kg, route intraperitoneal; details: human, tumor (HCT116 xenograft), read-out: Drug uptake
Mus musculus [6] = experiment: Decrease in histone H3 phosphorylation in human HCT116 cells xenografted mouse at 100 mg/kg, ip after 10 hrs; type: functional; details: HCT-116, ip, route intraperitoneal
HCT-116 [7] = experiment: Antiproliferative activity against human HCT116 cells assessed as BrdU incorporation; type: functional, cell-based
Mus musculus [8] = experiment: Decrease in histone H3 phosphorylation in human HCT116 cells xenografted mouse at 50 mg/kg, ip after 6 hrs; type: functional; details: HCT-116, ip, route intraperitoneal
[9] = Drug level in HCT116 xenografted mouse tumor at 50 mg/kg, ip after 6 hrs; type: ADME, organism-based, Neoplasm; design: dose 50 mg/kg, route intraperitoneal; details: human, tumor (HCT116 xenograft), read-out: Drug uptake
[10] = Drug level in HCT116 xenografted mouse tumor at 50 mg/kg, ip after 10 hrs; type: ADME, organism-based, Neoplasm; design: dose 50 mg/kg, route intraperitoneal; details: human, tumor (HCT116 xenograft), read-out: Drug uptake
Mus musculus [11] = experiment: Decrease in histone H3 phosphorylation in human HCT116 cells xenografted mouse at 50 mg/kg, ip after 10 hrs; type: functional; details: HCT-116, ip, route intraperitoneal
HCT-116 [12] = experiment: Antitumor activity against human HCT116 cells xenografted in mouse at 100 mg/kg, ip administered twice weekly for 3 weeks; type: functional; details: HCT-116, ip, 504 h, route intraperitoneal, read-out: TGI

Work on `O=C(Nc1cccc(C(F)(F)F)c1)Nc1cn(CCNc2ncnc3ccsc23)cn1` yielded a pIC50 (Aurora kinase A) of 5.92.

Compound `O=C(Nc1ccc(Cl)c(Cl)c1)Nc1ncc(CCNc2ncnc3ccsc23)s1` has a pIC50 (Aurora kinase B) of 7.89, an inhibition in vivo at 100 mg/kg (Mus musculus [1]) of 25% and a pIC50 (Aurora kinase A) of 7.02. The concentration at 10 h [2] was 54.8 µM, the pEC50 (HCT-116 [3]) was 7.80 and the pEC50 (HCT-116 [4]) was 7.80. For the same compound, the concentration at 6 h [5] was 49.5 µM, the inhibition in vivo at 100 mg/kg (Mus musculus [6]) was 25% and the pEC50 (HCT-116 [7]) was 7.62. For the same compound, the inhibition in vivo at 50 mg/kg (Mus musculus [8]) was 0%, the concentration at 6 h [9] was 21.3 µM and the concentration at 10 h [10] was 12.5 µM. For the same compound, the inhibition in vivo at 50 mg/kg (Mus musculus [11]) was 0%.

In the case of `CN(C(=O)Nc1ncc(CCNc2ncnc3ccsc23)s1)c1ccccc1`, the pIC50 (Aurora kinase A) was 5.14 and the pIC50 (HCT-116 [7]) was < 5.00.

With `CS(=O)(=O)O.O=C(Nc1cccc(Cl)c1)Nc1ncc(CCNc2ncnc3ccsc23)s1` [SNS-314 MESYLATE] the inhibition in vivo at 100 mg/kg (Mus musculus [1]) was 75%, the inhibition in vivo at 100 mg/kg (HCT-116 [12]) was 96% and the concentration at 10 h [2] was 31.6 µM. The pEC50 (HCT-116 [3]) was > 7.80, the pEC50 (HCT-116 [4]) was > 7.80 and the concentration at 6 h [5] was 28.6 µM. For the same compound, the inhibition in vivo at 100 mg/kg (Mus musculus [6]) was 75%, the inhibition in vivo at 50 mg/kg (Mus musculus [8]) was 75% and the concentration at 6 h [9] was 9.07 µM. The concentration at 10 h [10] was 3.72 µM and the inhibition in vivo at 50 mg/kg (Mus musculus [11]) was 50%.

With `C#Cc1cccc(NC(=O)Nc2ncc(CCNc3ncnc4ccsc34)s2)c1` the pIC50 (Aurora kinase A) was 7.39, the pEC50 (HCT-116 [4]) was > 7.80 and the pEC50 (HCT-116 [7]) was 7.85.

`O=C(Nc1cccc(C(F)(F)F)c1)Nc1cn(CCNc2ncnc3ccsc23)nn1` showed a pIC50 (Aurora kinase A) of 6.60.

With `O=C(Cc1cccc(C(F)(F)F)c1)Nc1ncc(CCNc2ncnc3ccsc23)s1` the pIC50 (Aurora kinase B) was 6.24, the pIC50 (Aurora kinase A) was < 5.00 and the pIC50 (HCT-116 [7]) was < 5.00.

`O=C(Cc1ncc(CCNc2ncnc3ccsc23)s1)Nc1cccc(C(F)(F)F)c1` showed a pIC50 (Aurora kinase B) of 6.35 and a pIC50 (Aurora kinase A) of 5.31.

For `O=C(Nc1cccc(C(F)(F)F)c1)Nc1ncc(CCNc2ncnc3ccsc23)s1`, the pIC50 (Aurora kinase B) was 7.85, the inhibition in vivo at 100 mg/kg (Mus musculus [1]) was 75% and the pEC50 (HCT-116 [3]) was > 7.80. For the same compound, the pEC50 (HCT-116 [4]) was > 7.80, the inhibition in vivo at 100 mg/kg (Mus musculus [6]) was 75% and the inhibition in vivo at 50 mg/kg (Mus musculus [8]) was 75%. The inhibition in vivo at 50 mg/kg (Mus musculus [11]) was 50%.

With `Cc1cccc(NC(=O)Nc2ncc(CCNc3ncnc4ccsc34)s2)c1` the pIC50 (Aurora kinase B) was 7.27, the pIC50 (Aurora kinase A) was 8.05 and the pEC50 (HCT-116 [4]) was > 7.80. The pEC50 (HCT-116 [7]) was 7.72.

`O=C(Nc1cccc(F)c1)Nc1ncc(CCNc2ncnc3ccsc23)s1` gave a pIC50 (Aurora kinase B) of 7.74, an inhibition in vivo at 100 mg/kg (Mus musculus [1]) of 75% and a pIC50 (Aurora kinase A) of 7.64. The concentration at 10 h [2] was 19.8 µM, the pEC50 (HCT-116 [3]) was > 7.80 and the pEC50 (HCT-116 [4]) was > 7.80. The concentration at 6 h [5] was 101 µM, the inhibition in vivo at 100 mg/kg (Mus musculus [6]) was 25% and the pEC50 (HCT-116 [7]) was 8.22. For the same compound, the inhibition in vivo at 50 mg/kg (Mus musculus [8]) was 25%, the concentration at 6 h [9] was 1.2 µM and the concentration at 10 h [10] was < 1 µM. The inhibition in vivo at 50 mg/kg (Mus musculus [11]) was 0%.

`O=C(Nc1cccc(CCN2CCC2)c1)Nc1ncc(CCNc2ncnc3ccsc23)s1` showed a pIC50 (Aurora kinase B) of 6.92, a pIC50 (Aurora kinase A) of 7.28 and a pEC50 (HCT-116 [3]) of 7.20. It also gave a pEC50 (HCT-116 [4]) of 7.80, a pEC50 (HCT-116 [7]) of 6.92 and an inhibition in vivo at 50 mg/kg (Mus musculus [8]) of 0%. For the same compound, the concentration at 6 h [9] was < 1 µM, the concentration at 10 h [10] was < 1 µM and the inhibition in vivo at 50 mg/kg (Mus musculus [11]) was 0%.

`O=C(Nc1ccccc1)Nc1ncc(CCNc2ncnc3ccsc23)s1` showed a pIC50 (Aurora kinase B) of 6.92 and a pIC50 (Aurora kinase A) of 7.28.

With `O=C(Nc1cccc(CCNc2ncnc3ccsc23)c1)Nc1cccc(C(F)(F)F)c1` the pIC50 (Aurora kinase A) was < 4.70.

For `O=C(Nc1ncc(CCNc2ncnc3ccsc23)s1)Nc1ccccc1Cl`, the pIC50 (Aurora kinase A) was 6.55, the pEC50 (HCT-116 [4]) was < 6.60 and the pEC50 (HCT-116 [7]) was 6.42.

For `O=C(Nc1cccc(C(F)(F)F)c1)c1ccc(CCNc2ncnc3ccsc23)cc1`, the pIC50 (Aurora kinase A) was < 4.70.

Work on `O=C(Nc1ncc(CCNc2ncnc3ccsc23)s1)c1cccc(C(F)(F)F)c1` yielded a pIC50 (Aurora kinase A) of 5.60 and a pEC50 (HCT-116 [4]) of 6.00.

For `O=C(Nc1ccc(Cl)cc1)Nc1ncc(CCNc2ncnc3ccsc23)s1`, the pIC50 (Aurora kinase A) was 7.41, the pEC50 (HCT-116 [4]) was 7.80 and the pEC50 (HCT-116 [7]) was 7.52.

`O=C(Nc1cc(CN2CCCC2)cc(C(F)(F)F)c1)Nc1ncc(CCNc2ncnc3ccsc23)s1` gave a pIC50 (Aurora kinase B) of 7.66, an inhibition in vivo at 100 mg/kg (Mus musculus [1]) of 50% and a pIC50 (Aurora kinase A) of 8.40. For the same compound, the concentration at 10 h [2] was 8.76 µM, the pEC50 (HCT-116 [3]) was 7.80 and the pEC50 (HCT-116 [4]) was > 7.80. It also gave a concentration at 6 h [5] of 6.2 µM, an inhibition in vivo at 100 mg/kg (Mus musculus [6]) of 25% and a pEC50 (HCT-116 [7]) of 8.22. The inhibition in vivo at 50 mg/kg (Mus musculus [8]) was 25% and the inhibition in vivo at 50 mg/kg (Mus musculus [11]) was 0%.

`COc1cccc(NC(=O)Nc2ncc(CCNc3ncnc4ccsc34)s2)c1` showed a pIC50 (Aurora kinase A) of 7.30, a pEC50 (HCT-116 [4]) of 7.80 and a pEC50 (HCT-116 [7]) of 7.47.

In the case of `O=C(Nc1ccc(CCNc2ncnc3ccsc23)cc1)Nc1cccc(C(F)(F)F)c1`, the pIC50 (Aurora kinase A) was 5.92.

For `O=C(Nc1ccc(CCNc2ncnc3ccsc23)cc1)c1cccc(C(F)(F)F)c1`, the pIC50 (Aurora kinase A) was 5.49.

For `O=C(Nc1cccc(C(F)(F)F)c1)Nc1nc(CCNc2ncnc3ccsc23)cs1`, the pIC50 (Aurora kinase A) was < 4.70.

Compound `O=C(Nc1ncc(CCNc2ncnc3ccsc23)s1)Nc1cccc2cc[nH]c12` has a pIC50 (Aurora kinase B) of 7.72, an inhibition in vivo at 100 mg/kg (Mus musculus [1]) of 75% and a pIC50 (Aurora kinase A) of 7.52. For the same compound, the concentration at 10 h [2] was 4.36 µM, the pEC50 (HCT-116 [3]) was 7.80 and the pEC50 (HCT-116 [4]) was 7.80. The concentration at 6 h [5] was 16.9 µM, the inhibition in vivo at 100 mg/kg (Mus musculus [6]) was 75% and the pEC50 (HCT-116 [7]) was 7.51. The inhibition in vivo at 50 mg/kg (Mus musculus [8]) was 75%, the concentration at 6 h [9] was 4.82 µM and the concentration at 10 h [10] was 3.67 µM. It also gave an inhibition in vivo at 50 mg/kg (Mus musculus [11]) of 75%.

In the case of `O=C(Nc1ncc(CCNc2ncnc3ccsc23)s1)NC1CCCCC1`, the pIC50 (Aurora kinase B) was 7.21, the pIC50 (Aurora kinase A) was 6.57 and the pEC50 (HCT-116 [4]) was 7.20. For the same compound, the pEC50 (HCT-116 [7]) was 7.14.

In the case of `O=C(Nc1ccc(F)c(Cl)c1)Nc1ncc(CCNc2ncnc3ccsc23)s1`, the pIC50 (Aurora kinase B) was 7.29, the inhibition in vivo at 100 mg/kg (Mus musculus [1]) was 75% and the pIC50 (Aurora kinase A) was 7.96. The concentration at 10 h [2] was 56.1 µM, the pEC50 (HCT-116 [3]) was > 7.80 and the pEC50 (HCT-116 [4]) was > 7.80. The concentration at 6 h [5] was 112 µM, the inhibition in vivo at 100 mg/kg (Mus musculus [6]) was 50% and the pEC50 (HCT-116 [7]) was 8.30. It also gave an inhibition in vivo at 50 mg/kg (Mus musculus [8]) of 75%, a concentration at 6 h [9] of 25.8 µM and a concentration at 10 h [10] of 15.6 µM. The inhibition in vivo at 50 mg/kg (Mus musculus [11]) was 25%.
